# Experimental data from patent US20060194819A1, “Activation specific inhibitors of nf-kb and method of treating inflammatory processes in cardio-vascular diseases” (PROCORDE GMBH, priority 2003, published 2006).
# What was measured:
# [1] = system: I KappaB alpha phosphorylation; test: P-IkBalpha detection in Western blot of HeLa cell lysates after TNF alpha stimulation; format: cell-based; conditions: HeLa cells, 10 and 100 μM
# Procedure: P-IkBα Detektion in Western-Blot Protocol: HeLa cells were maintained in Dulbecco's modified Eagle's medium (Invitrogen) supplemented with 10% fetal bovine serum, 2 mM L-glutamine, penicillin (50 units/ml) and streptomycin (50 μg/ml). 24 h before treatment with different compounds HeLa cells were plated at a density of 5×10^6 per well in 100-mm cell culture dishes to 90% confluences.
# The cells were incubated with different drugs at the concentration indicated for 1 h, washed twice with PBS and stimulated with 20 ng/ml TNF alpha (Roche). After 7 min the cells were washed twice with ice cold PBS followed by scraping and transferring into a 1.5 ml micro centrifuge tube. After centrifugation by 2000 rpm for 2 min by 4° C. the PBS supernatant was removed and 200 μl lysis-buffer (10 mM Hepes, pH 7.9, 0.1% NP40, 10 mM, 300 mM Sucrose, 10 mM KCl, 15 mM MgCl2, 1 mM DTT, 0.5 mM PMSF and antipain, aprotinin, leupeptin each 0.75 μg/ml (Sigma) was added to the pellet. The resuspended pellet was incubated on ice for 5 min and centrifuged at 13000 g for 30 s. 30 μl of the supernatant, cytosolic extract, was diluted with Laemmli-buffer (2% SDS, 2% 2-Mercaptoethanol, 0.01% Bromophenol blue, 8% Glycerine), heated by 60° C. for 10 min and loaded to a 4-20% polyacrylamid gels (BioRad). After electrophoresis the proteins were transferred to a nitrocellulose membrane using the wet blotting technique. First the membrane was blocked with Roti-Block (Roth) and afterwards incubated with monoclonal antibodies against P-IkBalpha (Santa Cruz Biotechnology, used at 1:200 dilution). This incubation was followed by the appropriate horseradish peroxidase-conjugated secondary antibody (Dianova) at 1:10000 dilution. Antibody binding was visualized on x-ray film using the Western blot Chemiluminescent Reagent Detection Kit (Santa Cruz).
# [2] = biological target: T1, IKKα/β binding to NEMO (Homo sapiens, UniProt O14920+O15111+Q9Y6K9); test: Degradation of the immunoprecipitated IKK-complex after drug treatment in vitro, Western blot; format: biochemical; conditions: precipitated IKK-complex incubated 1 h with compound
# T1 construct: endogenous in cells; host or cells: HeLa (immunoprecipitate with anti-NEMO antibody on Protein A-Sepharose)
# Procedure: After immuno-precipitation with anti-NEMO antibody (Santa Cruz) as described earlier, the precipitated and washed IKK-complex was incubated with different concentrations of IKK inhibitors in 20 mM HEPES, pH 8.0, 10 mM MgCl2, 100 μM Na3VO4, 20 mM-glycerophosphate, 50 mM NaCl, 2 mM dithiothreitol, 0.5 μM phenylmethylsulfonyl fluoride, antipain, aprotinin, leupeptin 0.75 μg/ml each (Sigma). After 1 h treatment the probe was centrifuged at 16000 g for 1 min the supernatant was removed totally and the protein A pellet was resuspended in 1×Laemmli-buffer buffer (2% SDS, 2% 2-Mercaptoethanol, 0.01% Bromophenol blue, 8% Glycerine), heated by 60° C. for 10 min and loaded to a 4-20% polyacrylamid gels (BioRad). After electrophoresis the proteins were transferred to a nitrocellulose membrane using the wet blotting technique. First the membrane was blocked with Roti-Block (Roth) and afterwards incubated with monoclonal antibodies against IKKα (Santa Cruz Biotechnology, used at 1:200 dilution). This incubation was followed by the appropriate horseradish peroxidase-conjugated secondary antibody (Dianova) at 1:10000 dilution. Antibody binding was visualized on x-ray film using the Western blot Chemiluminescent Reagent Detection Kit (Santa Cruz). The x-ray film was scanned and the results were analysed by densitometry by the software AIDA.
# [3] = Serum levels after single dose IV application in rats, mass spectroscopy; format: in vivo; conditions: 27.5 and 55 μg IV, 2 and 20 minutes
# Procedure: COM 56 was diluted in saline-buffer to 100 μM and 200 μM in a volume of 200 μL. The probe was administered intravenously in rats. After 2 min and 20 min a blood probe was taken from the right carotid artery. The blood probes were centrifuged by 2500 g for 3 min and the supernatant, the serum component, were analysed by mass spectroscopy.
# T1 sequence (Q9Y6K9 whole entry): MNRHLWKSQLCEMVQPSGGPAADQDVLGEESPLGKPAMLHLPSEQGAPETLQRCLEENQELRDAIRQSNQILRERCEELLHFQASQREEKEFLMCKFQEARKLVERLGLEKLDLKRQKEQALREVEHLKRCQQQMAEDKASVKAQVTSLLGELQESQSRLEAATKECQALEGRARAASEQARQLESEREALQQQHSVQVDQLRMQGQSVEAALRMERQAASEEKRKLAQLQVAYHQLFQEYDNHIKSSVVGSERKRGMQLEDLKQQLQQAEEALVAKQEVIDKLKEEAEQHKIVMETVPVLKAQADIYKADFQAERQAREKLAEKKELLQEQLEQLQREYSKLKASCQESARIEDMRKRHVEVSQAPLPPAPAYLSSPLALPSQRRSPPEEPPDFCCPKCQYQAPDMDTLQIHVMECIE
# T1 sequence (O15111 whole entry): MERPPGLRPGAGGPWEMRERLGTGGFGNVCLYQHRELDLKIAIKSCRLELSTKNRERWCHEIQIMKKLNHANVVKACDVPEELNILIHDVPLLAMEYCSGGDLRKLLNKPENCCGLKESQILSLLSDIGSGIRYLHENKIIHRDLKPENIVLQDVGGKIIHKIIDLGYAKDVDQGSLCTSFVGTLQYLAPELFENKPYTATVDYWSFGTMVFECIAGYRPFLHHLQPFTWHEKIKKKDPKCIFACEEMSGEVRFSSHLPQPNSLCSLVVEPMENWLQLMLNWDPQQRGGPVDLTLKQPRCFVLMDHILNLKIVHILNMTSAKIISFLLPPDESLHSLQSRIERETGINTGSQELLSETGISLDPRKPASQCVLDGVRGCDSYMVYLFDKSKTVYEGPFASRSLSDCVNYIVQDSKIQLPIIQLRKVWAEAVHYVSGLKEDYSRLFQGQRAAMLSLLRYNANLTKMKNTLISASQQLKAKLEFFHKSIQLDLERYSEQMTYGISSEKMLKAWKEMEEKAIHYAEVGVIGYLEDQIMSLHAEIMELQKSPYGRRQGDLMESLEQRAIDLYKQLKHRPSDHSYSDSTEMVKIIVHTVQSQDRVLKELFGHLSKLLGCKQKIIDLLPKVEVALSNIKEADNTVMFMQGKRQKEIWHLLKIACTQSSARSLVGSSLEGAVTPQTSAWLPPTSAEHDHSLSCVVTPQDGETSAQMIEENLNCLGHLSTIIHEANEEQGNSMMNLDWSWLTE
# T1 sequence (O14920 whole entry): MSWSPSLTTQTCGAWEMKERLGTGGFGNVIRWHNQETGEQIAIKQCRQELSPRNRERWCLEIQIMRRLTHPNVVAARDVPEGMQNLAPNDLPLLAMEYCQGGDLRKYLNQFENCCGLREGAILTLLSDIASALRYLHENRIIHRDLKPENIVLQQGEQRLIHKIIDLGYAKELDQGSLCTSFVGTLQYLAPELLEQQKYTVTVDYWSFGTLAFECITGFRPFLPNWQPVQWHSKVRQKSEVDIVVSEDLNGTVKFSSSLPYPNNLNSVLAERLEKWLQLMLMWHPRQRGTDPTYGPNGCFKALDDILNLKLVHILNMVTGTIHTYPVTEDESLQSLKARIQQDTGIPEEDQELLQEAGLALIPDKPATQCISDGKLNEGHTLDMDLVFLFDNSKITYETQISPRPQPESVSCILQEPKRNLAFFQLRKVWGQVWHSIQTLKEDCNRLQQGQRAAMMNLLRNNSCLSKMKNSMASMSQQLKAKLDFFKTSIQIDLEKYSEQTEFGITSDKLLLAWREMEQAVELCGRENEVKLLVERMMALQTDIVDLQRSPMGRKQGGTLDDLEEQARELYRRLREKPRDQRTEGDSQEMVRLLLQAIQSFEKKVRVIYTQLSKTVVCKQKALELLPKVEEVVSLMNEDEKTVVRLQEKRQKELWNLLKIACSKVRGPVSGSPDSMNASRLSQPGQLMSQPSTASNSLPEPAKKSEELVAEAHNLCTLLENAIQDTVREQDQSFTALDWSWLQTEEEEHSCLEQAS
structure (smiles),measurement,setting,value
"CCOC(=O)C1=C(C)N=c2s/c(=C/c3ccc(-c4cccc(C(=O)O)c4)o3)c(=O)n2C1c1ccc(Cl)cc1 (stereo not shown) [COM 56, 2-[5-(3-Carboxyphenyl)-furan-2-ylmethylene]-5-(4-chlorophenyl)-7-methyl-3-oxo-2,3-dihydro-5H-thiazolo[3,2-a]pyrimidine-6-carboxylic acid ethyl ester]","effect on IkappaB phosphorylation (Western blot), comparison of COM 73 and COM 54 family",[1],concentration-dependently inhibited
same,disruption of the IKK complex (NEMO binding to IKK-alpha/beta) in vitro,[2],dose-dependently disrupted
same,serum levels after single IV application,[3],considerable serum levels
same,serum levels after single IV application,[3]; listed as compound 56,positive serum probes
